Test results as given in paper PMC4063695, “Design of Embedded-Hybrid Antimicrobial Peptides with Enhanced Cell Selectivity and Anti-Biofilm Activity” (PLoS ONE, 2014).

System: resistant variants of P. aeruginosa
Assay: microbe, parasite or virus in culture
Format: cell-based
Settings: Pseudomonas aeruginosa, ATCC15442
From the text: E. coli ATCC25922, P. aeruginosa ATCC27853, S. aureus ATCC29213, S. epidermidis ATCC12228, S. faecalis ATCC29212 and B. subtilis CMCC63501 were obtained from the College of Veterinary Medicine, Northeast Agricultural University (Harbin, China), E. coli K88, E. coli CVCC1515 and P. aeruginosa ATCC15442 were bestowed by Prof. J.H. Wang (Gene Engineering Laboratory, Feed Research Institute, Chinese Academy of Agricultural Sciences Beijing, China) and E. coli UB1005 was kindly provided by Prof. Q.S. Qi (State Key Laboratory of Microbial Technology, Shandong University, China). […] Briefly, 50 µl of approximate 0.5–1 × 10^6 colony forming units (CFU)/ml of cells were diluted in Mueller-Hinton broth and distributed to 96-well plate, 50 µl of twofold peptides were added and the plates was incubated at 37°C for 18–24 h. The MIC values were calculated as the lowest peptide concentration that prevented visible turbidity and negative control of the pure broth without microbes. The tests were performed at least three times in duplicate.

**Q.** With `CNC(C)C1CCC(N)C(OC2C(N)CC(N)C(OC3OCC(C)(O)C(NC)C3O)C2O)O1` (stereo not shown) [gentamicin] as the molecule, how does the MIC read?
**A.** Its MIC is over 256 µM.
